Reference: PubChem BioAssay (NCI)
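How tested: cells in 96-well plates exposed to compound for 48 hours at five concentrations. GI50 = concentration required for 50% inhibition of growth. TGI denotes the concentration required for complete inhibition of growth.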

Experiments:
Assay in all cases: DTP human tumour cell line panel, 48 h
[1] = tested on: 786-0 renal
[2] = tested on: A498 renal
[3] = tested on: A549 NSCLC
[4] = tested on: BT-549 breast
[5] = tested on: CAKI-1 renal
[6] = tested on: CCRF-CEM leukemia
[7] = tested on: COLO 205 colon
[8] = tested on: DU-145 prostate
[9] = tested on: HCC-2998 colon
[10] = tested on: HCT-116 colon
[11] = tested on: HCT-15 colon
[12] = tested on: HL-60(TB) leukemia
[13] = tested on: HOP-62 NSCLC
[14] = tested on: HOP-92 NSCLC
[15] = tested on: HS 578T breast
[16] = tested on: HT29 colon
[17] = tested on: IGROV1 ovarian
[18] = tested on: K-562 leukemia
[19] = tested on: KM12 colon
[20] = tested on: LOX IMVI melanoma
[21] = tested on: M14 melanoma
[22] = tested on: MALME-3M melanoma
[23] = tested on: MCF7 breast
[24] = tested on: MDA-MB-231 breast
[25] = tested on: MDA-MB-435
[26] = tested on: MOLT-4 leukemia
[27] = tested on: NCI-H226 lung
[28] = tested on: NCI-H23 lung

**Q.** `NC(=O)Oc1cc(OC(N)=O)cc(N(CCCl)CCCl)c1` was tested. Which GI50 [1] did it give?
**A.** 4.28 µM

**Q.** What about the TGI [1] of the same molecule?
**A.** 22.8 µM

**Q.** And the GI50 [2]?
**A.** 12.4 µM

**Q.** And the TGI [2]?
**A.** 29.3 µM

**Q.** What about the GI50 [3] of the same molecule?
**A.** 5.13 µM

**Q.** And the TGI [3]?
**A.** 69 µM

**Q.** What about the GI50 [4] of the same molecule?
**A.** 7.93 µM

**Q.** What about the TGI [4] of the same molecule?
**A.** 30.7 µM

**Q.** What about the GI50 [5] of the same molecule?
**A.** 2.97 µM

**Q.** What about the TGI [5] of the same molecule?
**A.** 80.4 µM

**Q.** And the GI50 [6]?
**A.** 0.902 µM

**Q.** And the TGI [6]?
**A.** > 100 µM

**Q.** And the GI50 [7]?
**A.** 15.2 µM

**Q.** What about the TGI [7] of the same molecule?
**A.** 38.6 µM

**Q.** And the GI50 [8]?
**A.** 3.06 µM

**Q.** And the TGI [8]?
**A.** 51.2 µM

**Q.** What about the GI50 [9] of the same molecule?
**A.** 16.9 µM

**Q.** What about the TGI [9] of the same molecule?
**A.** 61.9 µM

**Q.** And the GI50 [10]?
**A.** 7.77 µM

**Q.** What about the TGI [10] of the same molecule?
**A.** > 100 µM

**Q.** And the GI50 [11]?
**A.** 6.31 µM

**Q.** And the TGI [11]?
**A.** > 100 µM

**Q.** And the GI50 [12]?
**A.** 1.58 µM

**Q.** And the TGI [12]?
**A.** > 100 µM

**Q.** And the GI50 [13]?
**A.** 20.9 µM

**Q.** What about the TGI [13] of the same molecule?
**A.** > 100 µM

**Q.** And the GI50 [14]?
**A.** 0.849 µM

**Q.** And the TGI [14]?
**A.** 7.87 µM

**Q.** And the GI50 [15]?
**A.** 23.2 µM

**Q.** What about the TGI [15] of the same molecule?
**A.** 76.3 µM

**Q.** What about the GI50 [16] of the same molecule?
**A.** 10.8 µM

**Q.** And the TGI [16]?
**A.** 51.4 µM

**Q.** What about the GI50 [17] of the same molecule?
**A.** 6.71 µM

**Q.** And the TGI [17]?
**A.** 49 µM

**Q.** What about the GI50 [18] of the same molecule?
**A.** 10 µM

**Q.** What about the TGI [18] of the same molecule?
**A.** > 100 µM

**Q.** And the GI50 [19]?
**A.** 14.1 µM

**Q.** And the TGI [19]?
**A.** 36.7 µM

**Q.** And the GI50 [20]?
**A.** 2.3 µM

**Q.** And the TGI [20]?
**A.** > 100 µM

**Q.** What about the GI50 [21] of the same molecule?
**A.** 5.74 µM

**Q.** And the TGI [21]?
**A.** 30.9 µM

**Q.** What about the GI50 [22] of the same molecule?
**A.** 5.73 µM

**Q.** And the TGI [22]?
**A.** 23.3 µM

**Q.** What about the GI50 [23] of the same molecule?
**A.** 1.09 µM

**Q.** What about the TGI [23] of the same molecule?
**A.** 47.4 µM

**Q.** What about the GI50 [24] of the same molecule?
**A.** 25.9 µM

**Q.** What about the TGI [24] of the same molecule?
**A.** > 100 µM

**Q.** And the GI50 [25]?
**A.** 11.4 µM

**Q.** What about the TGI [25] of the same molecule?
**A.** 28.9 µM

**Q.** And the GI50 [26]?
**A.** 2.18 µM

**Q.** And the TGI [26]?
**A.** > 100 µM

**Q.** What about the GI50 [27] of the same molecule?
**A.** 14.9 µM

**Q.** What about the TGI [27] of the same molecule?
**A.** 77.7 µM

**Q.** What about the GI50 [28] of the same molecule?
**A.** 6.12 µM

**Q.** What about the TGI [28] of the same molecule?
**A.** 63 µM
